# Where “and” joins values, the source holds several entries; their conditions need not be identical. Equal entries are not always repeated.
# Columns and labels:
# [1] = system: type 1 diabetic recipients; assay: Example 3: safety assessments; type: in vivo, human; conditions: of 8 recipients; resolved or improved with dose reduction
# Procedure: Safety was assessed by monitoring the severity and duration of adverse events. Efficacy was assessed by studying the recipients' insulin requirements, C-peptide levels, oral and intravenous glucose tolerance results, intravenous arginine stimulation responses, and HbA1c levels. Safety Assessments. Recipients underwent clinical, laboratory, and diagnostic safety assessments daily during their transplant hospitalization and at each of their 19 posttransplant study visits. Portal pressure was monitored during the transplant procedure. On days +1 and +7, ultrasonographic examination was done of the right upper quadrant including Doppler examination of the portal venous system. The severity and duration of any adverse events were monitored and recorded. Laboratory tests assessed hematology, chemistry, liver transaminases, lipids, standard creatinine clearance, and urinary albumin excretion. Adverse events were graded per the National Cancer Institute's Common Toxicity Criteria, Version 2.0.
# [2] = Example 3: immunosuppressant whole blood trough levels; type: in vivo, human; conditions: for Drug Exposure: whole blood trough levels, individual recipients #1-#8
# Procedure: Maintenance immunosuppression was initiated with sirolimus (0.2 mg/kg starting on day −2, followed by 0.1 mg/kg daily; target whole blood trough levels 5 to 15 ng/mL, as tolerated), and reduced-dose tacrolimus (0.015 mg/kg twice daily, starting on day +1; target whole blood trough levels 3 to 6 ng/mL). At 1 month posttransplant, tacrolimus was gradually replaced with mycophenolate mofetil (MMF; 750 to 1000 mg, twice daily); tacrolimus was either discontinued or dosed to a target trough level of <3 ng/mL. If target levels of sirolimus could not be achieved or maintained, however, tacrolimus (target level, 3 to 6 ng/mL) was continued.
# The 5 recipients received daily MMF doses of 1.5 to 2.0 g. They either (a) achieved and maintained sirolimus trough levels >9 ng/mL, with tacrolimus trough levels of 0 to <3 ng/mL, or (b) in the absence of target sirolimus trough levels, tacrolimus trough levels of 3 to 6 ng/mL. The 3 recipients who resumed exogenous insulin therapy had received ≧1.5 g/day of MMF but had subtherapeutic sirolimus trough levels (<9 ng/mL) in the absence of measurable tacrolimus trough levels (<3 ng/mL). Please see Table 5 for immunosuppression.
# [3] = Example 4: sirolimus whole blood trough concentration; type: in vivo, human
# Procedure: Immunosuppression. […] On days 0 through +9 posttransplant, they received a daily 4-mg dose. […] The doses were based on those previously used to treat kidney graft rejection (Woddle et al., Transplantation 1999; 68:608-616). Premedication was with acetaminophen, diphenhydramine, and pentoxifylline. Sirolimus (Rapamune, Wyeth-Ayerst) was initiated orally at a dose of 0.2 mg/kg on day −2, followed by 0.1 mg/kg daily; the dose then was titrated and adjusted to achieve a target whole blood trough level of 5 to 10 ng/mL. Mean trough concentration prior to transplant on day 0 was 6.1±1.7 ng/mL and on day +2 was 6.7±1.9 ng/mL. Reduced-dose tacrolimus (Prograf, Fujisawa) was administered orally to all islet recipients beginning on […] posttransplant at 0.015 mg/kg 2 times per day; the dose was then adjusted to achieve a target whole blood trough level of 3 to 6 ng/mL (Shapiro et al., New Engl. J. Med. 2000; 343:230-238).
# T1D patients = assay: Example 4: safety assessments; parameters: species or system human; conditions: in vivo
# Excerpt: Safety assessments. Recipients underwent clinical, laboratory, and diagnostic safety assessments. Daily during their transplant hospitalization and at each of their 23 posttransplant study visits, the severity and duration of any adverse events were monitored and recorded. Laboratory tests included hematology, chemistry, liver transaminases, lipids, standard creatinine clearance, and urinary albumin excretion. Adverse events were graded based on the National Cancer Institute's Common Toxicity Criteria, Version 2.0.
# [4] = system: serum cytokines (IL-10, TNF-α); assay: Serum cytokines before and after hOKT3γ1 (Ala-Ala); type: in vivo, human
# [5] = Anti-idiotype antibodies by ELISA; type: in vivo, human; conditions: all recipients treated
# Excerpt: (§1) Monitoring hOKT3γ1 (Ala-Ala). Flow cytometry was used to enumerate CD2^+, CD4^+, CD8^+, CD25^+, and CD69^+ T cells. […] Anti-idiotype antibodies were identified by ELISA, by the use of plate-bound OKT3, or by flow cytometry, in order to measure the blockade of binding of OKT3 fluorescein isothiocyanate to CD3 (Chatenoud, Transplant Proc. 1993; 25:68-73).
# [6] = system: autoreactive and alloreactive T cell responses; conditions: clinical; cited from earlier work
# [7] = Monitoring hOKT3γ1 (Ala-Ala): serum levels; type: in vivo, human; conditions: table: individual subjects #1-#6, text: mean; for Peak hOKT3γ1 (Ala-Ala) level achieved: serum
# Excerpt: as §1
# CD3 = target: T1, CD3 (Homo sapiens, UniProt P07766); assay: Monitoring hOKT3γ1 (Ala-Ala): coating of the CD3 molecule on PBLs; type: in vivo; conditions: table: individual subjects #1-#6, text: mean
# T1 construct: endogenous in cells; host or cells: peripheral blood lymphocytes (PBLs) of the treated patients
# Excerpt: as §1
# [8] = the 3 recipients who resumed exogenous insulin therapy
# T1 sequence (P07766 23-207): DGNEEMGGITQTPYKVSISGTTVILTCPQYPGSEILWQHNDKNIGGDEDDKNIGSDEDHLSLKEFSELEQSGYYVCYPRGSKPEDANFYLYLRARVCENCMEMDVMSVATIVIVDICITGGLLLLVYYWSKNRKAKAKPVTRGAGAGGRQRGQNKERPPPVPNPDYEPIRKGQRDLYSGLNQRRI
# T1 sequence (P09693 23-182 partner): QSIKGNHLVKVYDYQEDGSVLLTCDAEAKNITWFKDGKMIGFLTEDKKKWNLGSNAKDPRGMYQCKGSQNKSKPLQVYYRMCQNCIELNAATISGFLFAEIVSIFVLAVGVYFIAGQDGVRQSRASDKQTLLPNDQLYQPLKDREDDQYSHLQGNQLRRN
# T1 sequence (P04234 22-171 partner): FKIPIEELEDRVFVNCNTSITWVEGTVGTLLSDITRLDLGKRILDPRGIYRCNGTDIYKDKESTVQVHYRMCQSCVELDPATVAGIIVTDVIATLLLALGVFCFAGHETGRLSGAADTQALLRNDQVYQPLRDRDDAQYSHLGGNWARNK
# T1 sequence (P20963 22-164 partner): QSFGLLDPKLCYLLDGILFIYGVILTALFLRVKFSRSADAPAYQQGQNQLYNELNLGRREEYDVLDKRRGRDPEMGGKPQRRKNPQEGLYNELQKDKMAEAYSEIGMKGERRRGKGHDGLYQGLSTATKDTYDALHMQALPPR
compound,measurement,setting,value
"COc1c(C)c2c(c(O)c1C/C=C(\C)CCC(=O)OCCN1CCOCC1)C(=O)OC2 [MMF, mycophenolate mofetil]",Recipients with transient diarrhea after beginning MMF therapy,[1],6
"CO[C@H]1C[C@@H]2CC[C@@H](C)[C@@](O)(O2)C(=O)C(=O)N2CCCC[C@H]2C(=O)O[C@H]([C@H](C)C[C@@H]2CC[C@@H](O)[C@H](OC)C2)CC(=O)[C@H](C)/C=C(\C)[C@@H](O)[C@@H](OC)C(=O)[C@H](C)C[C@H](C)/C=C/C=C/C=C/1C [Sirolimus, sirolimus]",Trough levels,"[2]; recipients with sustained insulin independence, case (a)",> 9 ng/mL
same,Trough levels,[2]; [8],< 9 ng/mL
same,Drug Exposure,[2],4-8 ng/ml and >9 ng/ml (3×) and 2-3 ng/ml and 7-9 ng/ml and 4-9 ng/ml and 6-8 ng/ml
same,Mean trough concentration,[3]; day +2,6.7 ± 1.9 ng/mL
same,Mean trough concentration,[3]; prior to transplant on day 0,6.1 ± 1.7 ng/mL
"C=CC[C@@H]1/C=C(\C)C[C@H](C)C[C@H](OC)[C@H]2O[C@@](O)(C(=O)C(=O)N3CCCC[C@H]3C(=O)O[C@H](/C(C)=C/[C@@H]3CC[C@@H](O)[C@H](OC)C3)[C@H](C)[C@@H](O)CC1=O)[C@H](C)C[C@@H]2OC [Tacrolimus, tacrolimus]",Trough levels,[2]; [8],< 3 ng/mL
same,Drug Exposure,[2],0 ng/ml (2×) and 4-5 ng/ml and 4-6 ng/ml and <3 ng/ml and 3 ng/ml
C[C@@H]1[C@H](O)[C@@H](C)/C=C/C=C/CC/C=C/C=C/C=C/C=C/C(O[C@H]2O[C@H](C)[C@@H](O)[C@H](N)[C@@H]2O)CC2O[C@](O)(CC(O)C(O)CCC(O)CC(O)CC(O)CC(=O)O[C@H]1C)CC(O)C2C(=O)O (stereo partly shown) [nystatin],Serious adverse event determined to be related to treatment,T1D patients,generalized rash
hOKT3γ1 (Ala-Ala): humanized anti-CD3 antibody retaining the binding region of OKT3; human IgG1 Fc mutated to prevent binding to the Fc receptor,Mean peak serum TNF-α after administration,[4]; 29.9±31.7 pg/mL prior to administration,267.6 ± 120.3 pg/mL
same,Serum IL-10 levels after administration compared with pre-dosing levels,[4]; all participants,increased in all participants
same,Anti-idiotype antibodies,[5],Absence of anti-idiotype antibodies
same,Kidney graft rejection,[6],reversed kidney graft rejection
same,Side effects compared with the parental OKT3 antibody,[6],markedly fewer side effects
same,Peak hOKT3γ1 (Ala-Ala) level achieved,[7],1196 ± 821 ng/mL
same,Peak hOKT3γ1 (Ala-Ala) level achieved,[7]; listed as hOKT3γ1 (Ala—Ala),872 ng/mL and 450 ng/mL and 1028 ng/mL and 736 ng/mL and 2761 ng/mL and 1330 ng/mL
same,Days to negative hOKT3γ1 (Ala-Ala) level after last dose,[7],61 ± 32 days
same,Days to negative hOKT3γ1 (Ala-Ala) level after last dose,[7]; listed as hOKT3γ1 (Ala—Ala),91 days and 111 days and 47 days and 50 days and 33 days and 34 days
same,Duration >80% CD3 coating (Total # of days),CD3,4.8 ± 2.6 days
same,Time to 80% CD3 coating (# of days),CD3,7.3 ± 2.9 days
same,Duration >80% CD3 coating (Total # of days),CD3; listed as hOKT3γ1 (Ala—Ala),4 days (2×) and 3 days and 2 days and 8 days (2×)
same,Time to 80% CD3 coating (# of days),CD3; listed as hOKT3γ1 (Ala—Ala),9.5 days and 8.5 days and 11.5 days and 4.5 days (2×) and 5.5 days

# Reference: US20060182722A1, “Methods and materials for isolating isogenic islet cells” (priority 2005, published 2006)
